Laboratory results: paper PMC2659691 (Journal of Medicinal Chemistry, 2009)

Key:
[1] = molecular target: T. brucei TryR (Trypanosoma brucei brucei, UniProt P39051); assay: TryR inhibition, high-throughput microplate assay; type: biochemical
[2] = molecular target: T. cruzi TryR (Trypanosoma cruzi, UniProt P28593); assay: TryR inhibition, high-throughput microplate assay; type: biochemical
Chain of T. cruzi TryR (P28593 whole entry): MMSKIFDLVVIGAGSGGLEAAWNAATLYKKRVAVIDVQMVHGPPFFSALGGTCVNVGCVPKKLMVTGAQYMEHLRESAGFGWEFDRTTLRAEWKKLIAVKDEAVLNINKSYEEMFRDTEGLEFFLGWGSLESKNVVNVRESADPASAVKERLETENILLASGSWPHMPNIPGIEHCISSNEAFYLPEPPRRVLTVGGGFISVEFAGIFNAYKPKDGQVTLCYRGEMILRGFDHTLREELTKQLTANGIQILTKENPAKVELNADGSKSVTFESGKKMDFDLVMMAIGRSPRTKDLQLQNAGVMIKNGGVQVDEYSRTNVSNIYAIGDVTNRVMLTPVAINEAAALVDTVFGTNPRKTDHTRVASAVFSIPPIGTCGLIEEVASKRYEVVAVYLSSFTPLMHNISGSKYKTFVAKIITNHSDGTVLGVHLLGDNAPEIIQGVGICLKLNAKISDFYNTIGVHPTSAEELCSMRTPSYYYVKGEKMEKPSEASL

Chain of T. brucei TryR (P39051 whole entry): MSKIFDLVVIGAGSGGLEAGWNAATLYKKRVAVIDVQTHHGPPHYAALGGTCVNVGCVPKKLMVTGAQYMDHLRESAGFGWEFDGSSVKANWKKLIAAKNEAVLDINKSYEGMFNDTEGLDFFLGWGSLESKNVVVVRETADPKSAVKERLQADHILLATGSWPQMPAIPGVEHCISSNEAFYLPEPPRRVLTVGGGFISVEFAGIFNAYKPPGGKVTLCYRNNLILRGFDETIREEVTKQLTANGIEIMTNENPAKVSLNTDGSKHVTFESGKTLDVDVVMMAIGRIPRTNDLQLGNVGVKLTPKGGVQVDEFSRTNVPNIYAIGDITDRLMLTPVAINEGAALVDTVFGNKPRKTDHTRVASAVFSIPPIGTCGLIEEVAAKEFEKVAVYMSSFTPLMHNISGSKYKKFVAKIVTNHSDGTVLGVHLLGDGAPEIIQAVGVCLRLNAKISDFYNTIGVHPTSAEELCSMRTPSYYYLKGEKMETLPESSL

| Structure (SMILES) | inhibitory activity against TryR (in words) [1] | inhibitory activity against TryR (in words) [2] |
| --- | --- | --- |
| O=C(CN1C(=O)C2CC=CCC2C1=O)Nc1ccccc1Sc1ccc(Cl)cc1 (stereo not shown) [Compound 12] | neither 12 nor 16 displayed significant inhibitory activity | neither 12 nor 16 displayed significant inhibitory activity |
| O=C(CN1C(=O)NC2(CCCCCC2)C1=O)Nc1ccccc1Sc1ccccc1 [Compound 16] | neither 12 nor 16 displayed significant inhibitory activity | neither 12 nor 16 displayed significant inhibitory activity |
